Several values for one entry are separate records, joined by “and”; a condition that tells them apart may be missing. Equal entries are not always repeated.
Assays:
[1] = molecular target: T1, 5-hydroxytryptamine receptor 2C (Rattus norvegicus, UniProt P08909)
T1 sequence (P08909 whole entry): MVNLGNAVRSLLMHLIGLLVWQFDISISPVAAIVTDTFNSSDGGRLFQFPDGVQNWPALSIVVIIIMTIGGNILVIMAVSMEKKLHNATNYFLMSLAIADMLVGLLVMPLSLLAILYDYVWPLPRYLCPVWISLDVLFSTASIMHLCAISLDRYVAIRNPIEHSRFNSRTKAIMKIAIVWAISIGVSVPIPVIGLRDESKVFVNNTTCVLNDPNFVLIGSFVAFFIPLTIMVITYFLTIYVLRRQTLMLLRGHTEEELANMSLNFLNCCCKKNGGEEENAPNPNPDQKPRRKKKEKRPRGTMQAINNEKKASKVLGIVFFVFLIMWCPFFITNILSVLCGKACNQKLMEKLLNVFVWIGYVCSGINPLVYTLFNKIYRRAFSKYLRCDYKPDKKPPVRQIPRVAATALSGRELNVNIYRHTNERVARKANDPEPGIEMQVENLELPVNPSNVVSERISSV

[2] = molecular target: 5-hydroxytryptamine receptor 2B (Homo sapiens, UniProt P41595)
5-hydroxytryptamine receptor 2B, sequence (P41595 whole entry): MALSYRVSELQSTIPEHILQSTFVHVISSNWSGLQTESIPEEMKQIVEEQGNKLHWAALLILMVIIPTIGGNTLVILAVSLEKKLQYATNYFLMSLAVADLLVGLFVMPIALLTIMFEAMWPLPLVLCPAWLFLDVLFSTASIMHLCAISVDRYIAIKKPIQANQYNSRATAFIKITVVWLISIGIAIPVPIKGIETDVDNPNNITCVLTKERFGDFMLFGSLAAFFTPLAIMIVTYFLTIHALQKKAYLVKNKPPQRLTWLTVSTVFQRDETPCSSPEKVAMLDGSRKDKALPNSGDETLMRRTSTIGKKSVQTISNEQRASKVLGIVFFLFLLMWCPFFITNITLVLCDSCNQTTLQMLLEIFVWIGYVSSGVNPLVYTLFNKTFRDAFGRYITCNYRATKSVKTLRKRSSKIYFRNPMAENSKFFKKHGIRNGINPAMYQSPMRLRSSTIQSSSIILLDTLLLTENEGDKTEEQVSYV

Compound | Ki [1] | Ki [2]
Clc1cccc(N2CCNCC2)c1 [mCPP] | 0.059 µM | –
NCC[C@H](Oc1ccc(C(F)(F)F)cc1)c1ccccc1 [NORFLUOXETINE] | 0.286 µM | 5.06 µM
C[C@H](N)Cc1cccc(C(F)(F)F)c1 [Norfenfluramine (+)] | 0.557 µM and 0.324 µM and 0.814 µM | 0.0521 µM and 0.0112 µM and 0.0478 µM
CC[C@@H](CO)NC(=O)[C@@H]1C=C2c3cccc4[nH]cc(c34)C[C@H]2N(C)C1 [Methylergometrine] | – | 0.00049 µM
O=c1n(CCCN2CCN(c3cccc(Cl)c3)CC2)nc2ccccn12 [2-{3-[4-(3-chlorophenyl)piperazin-1-yl]propyl}[1,2,4]triazolo[4,3-a]pyridin-3(2H)-one] | 0.402 µM | –
CN1C[C@H](C(=O)N[C@]2(C)O[C@@]3(O)[C@@H]4CCCN4C(=O)[C@H](Cc4ccccc4)N3C2=O)C=C2c3cccc4[nH]cc(c34)C[C@H]21 [12'-hydroxy-2'-methyl-5'alpha-(phenylmethyl)ergotaman-3',6',18-trione] | 0.012 µM | 0.003 µM
CC(C)(N)Cc1ccccc1 [2-methyl-1-phenylpropan-2-amine] | > 10 µM | > 10 µM
CCNC(C)Cc1cccc(C(F)(F)F)c1 (stereo not drawn) [NSC_3337] | 3.18 µM and 6.25 µM and 3.42 µM | –
CC[C@@H](CO)NC(=O)[C@@H]1C=C2c3cccc4c3c(cn4C)C[C@H]2N(C)C1 | 0.0018 µM | –
